The values below come from article PMC5619856, “One enzyme, many reactions: structural basis for the various reactions catalyzed by naphthalene 1,2-dioxygenase” (IUCrJ, 2017).

The target of this assay is T1, naphthalene 1,2-dioxygenase (NDO) (Pseudomonas putida, UniProt P0A110).
T1 construct: gene ndoB; wild-type terminal oxygenase component, plasmid pDTG121 in E. coli DE3 Star, no tag mentioned; alpha3beta3 hexamer with Rieske [2Fe-2S] and mononuclear iron; with Naphthalene 1,2-dioxygenase system, small oxygenase component
T1 sequence (P0A110 1-449): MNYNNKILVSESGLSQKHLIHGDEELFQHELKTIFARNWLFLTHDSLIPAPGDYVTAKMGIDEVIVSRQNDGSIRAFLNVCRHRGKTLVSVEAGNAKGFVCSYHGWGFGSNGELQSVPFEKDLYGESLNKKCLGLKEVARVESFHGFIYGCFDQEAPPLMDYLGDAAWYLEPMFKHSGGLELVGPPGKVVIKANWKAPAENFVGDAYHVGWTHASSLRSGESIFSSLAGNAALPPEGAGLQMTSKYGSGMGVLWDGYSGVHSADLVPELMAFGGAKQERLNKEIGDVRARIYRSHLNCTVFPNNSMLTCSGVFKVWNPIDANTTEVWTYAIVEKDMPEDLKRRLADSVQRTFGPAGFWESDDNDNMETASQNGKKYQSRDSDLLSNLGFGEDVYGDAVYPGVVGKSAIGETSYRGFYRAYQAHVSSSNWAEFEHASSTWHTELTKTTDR
T1 sequence (P0A112 1-194 partner): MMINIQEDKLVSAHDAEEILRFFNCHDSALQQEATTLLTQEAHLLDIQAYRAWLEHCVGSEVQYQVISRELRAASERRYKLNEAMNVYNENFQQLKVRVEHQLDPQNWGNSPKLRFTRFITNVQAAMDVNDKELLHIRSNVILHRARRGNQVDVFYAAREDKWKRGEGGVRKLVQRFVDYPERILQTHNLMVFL
In words: X-ray crystal structure (soaked crystal). It counts as binding. The settings on record: active site, multiple orientations; crystals pH 5.0-5.8; soaked at least two weeks.

For the compound `CCSc1ccccc1` [ethylphenylsulfide], the “X-ray crystal structure (soaked crystal)” value was “structures of phenetole, thioanisole and ethylphenylsulfide in complex with NDO were solved”.

In the case of `CCOc1ccccc1` [phenetole], the “X-ray crystal structure (soaked crystal)” value was “structures of phenetole, thioanisole and ethylphenylsulfide in complex with NDO were solved”.

On to `CSc1ccccc1` [thioanisole], for which the “X-ray crystal structure (soaked crystal)” value is “structures of phenetole, thioanisole and ethylphenylsulfide in complex with NDO were solved”.
